From ChEMBL document CHEMBL4219053, “Antiobesity and emetic effects of a short-length peptide YY analog and its PEGylated and alkylated derivatives” (Bioorg Med Chem, 2018)
pIC50: −log10 of the molar value.

Tests used:
Mus musculus [1] = test: Anorectic activity in C57BL/6J mouse assessed as inhibition of food intake at 30 nmol/kg, sc qd for 3 days relative to control; format: functional; settings: 72 h
[2] = target: T1, Neuropeptide Y receptor type 2 (Homo sapiens, UniProt P49146); test: Displacement of [125I]-PYY from human neuropeptide Y2 receptor expressed in CHO cell membranes incubated for 60 mins by TopCount micro scintillation analysis
T1 sequence (P49146 whole entry): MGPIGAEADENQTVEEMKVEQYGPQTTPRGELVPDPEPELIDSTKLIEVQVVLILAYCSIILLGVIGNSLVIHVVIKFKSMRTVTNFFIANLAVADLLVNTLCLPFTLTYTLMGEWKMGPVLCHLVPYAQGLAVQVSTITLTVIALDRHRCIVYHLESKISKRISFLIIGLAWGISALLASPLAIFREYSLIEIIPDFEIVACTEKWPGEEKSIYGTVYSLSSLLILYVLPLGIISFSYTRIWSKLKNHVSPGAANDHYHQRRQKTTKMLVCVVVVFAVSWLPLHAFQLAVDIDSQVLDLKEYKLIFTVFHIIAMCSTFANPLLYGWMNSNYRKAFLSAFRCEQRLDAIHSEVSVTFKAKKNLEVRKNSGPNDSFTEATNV

[3] = Solubility of the compound in water; format: physicochemical; settings: buffer
Mus musculus [4] = test: Antiobesity activity in DIO C57BL/6J mouse assessed as reduction in body weight at 3 nmol/kg, sc qd for 2 weeks; format: functional; design: scale not given: the % may be the effect or the level left
Mus musculus [5] = test: Antiobesity activity in DIO C57BL/6J mouse assessed as reduction in body weight at 10 nmol/kg, sc qd for 2 weeks; format: functional; design: scale not given: the % may be the effect or the level left
[6] = AUC (0 to 48 hrs) in C57BL/6J mouse at 10 nmol/kg, sc by LC-MS/MS analysis; format: ADME, organism-based; design: dose 10 nmol/kg, time < 48 hr, route subcutaneous; settings: in vivo
[7] = Tmax in Beagle dog at 3 nmol/kg, sc; format: ADME, organism-based, Canis lupus familiaris; settings: in vivo
[8] = Mean residence time in C57BL/6J mouse at 10 nmol/kg, sc by LC-MS/MS analysis; format: ADME, organism-based; settings: in vivo
[9] = Cmax in C57BL/6J mouse at 10 nmol/kg, sc by LC-MS/MS analysis; format: ADME, organism-based; design: dose 10 nmol/kg, route subcutaneous; settings: in vivo
[10] = Tmax in C57BL/6J mouse at 10 nmol/kg, sc by LC-MS/MS analysis; format: ADME, organism-based; settings: in vivo
[11] = Cmax in Beagle dog at 3 nmol/kg, sc; format: ADME, organism-based, Canis lupus familiaris; design: dose 3 nmol/kg, route subcutaneous; settings: in vivo
Mus musculus [12] = test: Antiobesity activity in DIO C57BL/6J mouse assessed as reduction in body weight at 30 nmol/kg, sc qd for 2 weeks; format: functional; design: scale not given: the % may be the effect or the level left
Canis familiaris [13] = test: Emetic effect in Beagle dog at 3 nmol/kg, sc measured up to 4 hrs; format: ADME, organism-based, Canis lupus familiaris; settings: in vivo
Canis familiaris [14] = test: Emetic effect in Beagle dog at 3 nmol/kg, sc measured after 4 to 8 hrs; format: ADME, organism-based, Canis lupus familiaris; settings: in vivo

Row | SMILES | inhibition in vivo at 0.03 µmol/kg (Mus musculus [1]) | pIC50 [2] | solubility [3] | Activity (Mus musculus [5]) | Activity (Mus musculus [12]) | further results
1 | CCCCCCCCCCCCCCCC(=O)NC[C@H]1CC[C@H](C(=O)N[C@@H](CCC(=O)NCCCOCCOCCOCCCNC(=O)COCC(=O)NCCCC[C@H](N)C(=O)NCCCC[C@H](NC(=O)[C@H](CC(N)=O)NC(=O)C(C)(C)NC(=O)[C@H](CC2CCCCC2)NC(=O)[C@H](Cc2ccncc2)NC(=O)[C@H](CCCNC(=N)N)NC(=O)[C@H]2C[C@H](O)CN2C(=O)[C@H](CO)NC(=O)c2c[nH]cn2)C(=O)NC(C)(C)C(=O)N[C@H](C(=O)N[C@@H](CCCNC(=N)N)C(=O)N[C@@H](CCC(N)=O)C(=O)N[C@@H](CCCNC(=N)N)C(=O)N[C@@H](CC2CCCCC2)C(N)=O)[C@@H](C)O)C(=O)O)CC1 | 36% | 9.72 | – | – | – | –
2 | CC[C@](C)(NC(=O)[C@H]1C[C@H](O)CN1C(=O)[C@H](CO)NC(=O)c1c[nH]cn1)C(=O)N[C@@H](Cc1ccncc1)C(=O)N[C@@H](CC1CCCCC1)C(=O)N[C@@H](CC(C)(C)C)C(=O)N[C@@H](CC(N)=O)C(=O)N[C@@H](CCCCNC(=O)[C@@H](N)CCCCNC(=O)COCC(=O)NCCCOCCOCCOCCCNC(=O)CC[C@H](NC(=O)[C@H]1CC[C@H](CNC(=O)CCCCCCCCCCCCCCCCCCC(=O)O)CC1)C(=O)O)C(=O)NC(C)(C)C(=O)N[C@H](C(=O)N[C@@H](CCCNC(=N)N)C(=O)N[C@@H](CCC(N)=O)C(=O)N[C@@H](CCCNC(=N)N)C(=O)N[C@@H](CC1CCCCC1)C(N)=O)[C@@H](C)O | 67% | 7.89 | Insoluble | – | – | –
3 | CC[C@](C)(NC(=O)[C@H]1C[C@H](O)CN1C(=O)[C@H](CO)NC(=O)c1c[nH]cn1)C(=O)N[C@@H](Cc1ccncc1)C(=O)N[C@@H](CC1CCCCC1)C(=O)N[C@@H](CC(C)(C)C)C(=O)N[C@@H](CC(N)=O)C(=O)N[C@@H](CCCCNC(=O)COCC(=O)NCCCOCCOCCOCCCNC(=O)CC[C@H](NC(=O)[C@H]1CC[C@H](CNC(=O)CCCCCCCCCCCCCCCCCCC(=O)O)CC1)C(=O)O)C(=O)NC(C)(C)C(=O)N[C@H](C(=O)N[C@@H](CCCNC(=N)N)C(=O)N[C@@H](CCC(N)=O)C(=O)N[C@@H](CCCNC(=N)N)C(=O)N[C@@H](CC1CCCCC1)C(N)=O)[C@@H](C)O | 30% | 7.62 | – | – | – | –
4 | CCCCCCCCCCCCCCCC(=O)NC[C@H]1CC[C@H](C(=O)N[C@@H](CCC(=O)NCCCOCCOCCOCCCNC(=O)COCC(=O)N[C@@H](CO)C(=O)N2C[C@@H](O)C[C@@H]2C(=O)N[C@@H](CCCNC(=N)N)C(=O)N[C@@H](Cc2ccncc2)C(=O)N[C@@H](CC2CCCCC2)C(=O)NC(C)(C)C(=O)N[C@@H](CC(N)=O)C(=O)N[C@@H](CCCCNC(=O)C2CCNCC2)C(=O)NC(C)(C)C(=O)N[C@H](C(=O)N[C@@H](CCCNC(=N)N)C(=O)N[C@@H](CCC(N)=O)C(=O)N[C@@H](CCCNC(=N)N)C(=O)N[C@@H](CC2CCCCC2)C(N)=O)[C@@H](C)O)C(=O)O)CC1 | 68.3% | 9.72 | – | -19% | – | Activity (Mus musculus [4]): -18.4%; AUC(0-t) at 48 h [6]: 0.0122 µM·h; Tmax [7]: 2.5 h; MRT [8]: 1.7 h; Cmax [9]: 3.6 nM; Tmax [10]: 1 h; Cmax [11]: 0.9 nM
5 | CC[C@](C)(NC(=O)[C@H]1C[C@H](O)CN1C(=O)[C@H](CO)NC(=O)COCC(=O)NCCCOCCOCCOCCCNC(=O)CC[C@H](NC(=O)[C@H]1CC[C@H](CNC(=O)CCCCCCCCCCCCCCCCCCC(=O)O)CC1)C(=O)O)C(=O)N[C@@H](Cc1ccncc1)C(=O)N[C@@H](CC1CCCCC1)C(=O)N[C@@H](CC(C)(C)C)C(=O)N[C@@H](CC(N)=O)C(=O)N[C@@H](CCCCN)C(=O)NC(C)(C)C(=O)N[C@H](C(=O)N[C@@H](CCCNC(=N)N)C(=O)N[C@@H](CCC(N)=O)C(=O)N[C@@H](CCCNC(=N)N)C(=O)N[C@@H](CC1CCCCC1)C(N)=O)[C@@H](C)O | 47.8% | 7.89 | – | – | -15.1% | –
6 | CC[C@](C)(NC(=O)[C@H]1C[C@H](O)CN1C(=O)[C@H](CO)NC(=O)COCC(=O)NCCCOCCOCCOCCCNC(=O)CC[C@H](NC(=O)[C@H]1CC[C@H](CNC(=O)CCCCCCCCCCCCCCCCCCC(=O)O)CC1)C(=O)O)C(=O)N[C@@H](Cc1ccncc1)C(=O)N[C@@H](CC1CCCCC1)C(=O)N[C@@H](CC(C)(C)C)C(=O)N[C@@H](CC(N)=O)C(=O)N[C@@H](CCCCNC(C)=O)C(=O)NC(C)(C)C(=O)N[C@H](C(=O)N[C@@H](CCCNC(=N)N)C(=O)N[C@@H](CCC(N)=O)C(=O)N[C@@H](CCCNC(=N)N)C(=O)N[C@@H](CC1CCCCC1)C(N)=O)[C@@H](C)O | 43% | 8.12 | – | – | -6.1% | –
7 | CC[C@](C)(NC(=O)[C@H]1C[C@H](O)CN1C(=O)[C@H](CO)NC(=O)COCC(=O)NCCCOCCOCCOCCCNC(=O)CC[C@H](NC(=O)[C@H]1CC[C@H](CNC(=O)CCCCCCCCCCCCCCCCCCC(=O)O)CC1)C(=O)O)C(=O)N[C@@H](Cc1ccncc1)C(=O)N[C@@H](CC1CCCCC1)C(=O)N[C@@H](CC(C)(C)C)C(=O)N[C@@H](CC(N)=O)C(=O)N[C@@H](CCCCNC(=O)C1CCNCC1)C(=O)NC(C)(C)C(=O)N[C@H](C(=O)N[C@@H](CCCNC(=N)N)C(=O)N[C@@H](CCC(N)=O)C(=O)N[C@@H](CCCNC(=N)N)C(=O)N[C@@H](CC1CCCCC1)C(N)=O)[C@@H](C)O | 52.8% | 8.12 | – | – | -22.3% | –
8 | C[C@@H](O)[C@H](NC(=O)C(C)(C)NC(=O)[C@H](CCCCNC(=O)[C@@H](N)CCCCNC(=O)COCC(=O)NCCCOCCOCCOCCCNC(=O)CC[C@H](NC(=O)[C@H]1CC[C@H](CNC(=O)CCCCCCCCCCCCCCCCCCC(=O)O)CC1)C(=O)O)NC(=O)[C@H](CC(N)=O)NC(=O)[C@H](CC(C)(C)C)NC(=O)[C@H](CC1CCCCC1)NC(=O)[C@H](Cc1ccncc1)NC(=O)[C@H](CCCNC(=N)N)NC(=O)[C@H]1C[C@H](O)CN1C(=O)[C@H](CO)NC(=O)c1c[nH]cn1)C(=O)N[C@@H](CCCNC(=N)N)C(=O)N[C@@H](CCC(N)=O)C(=O)N[C@@H](CCCNC(=N)N)C(=O)N[C@@H](CC1CCCCC1)C(N)=O | 58% | 8.47 | Soluble | – | -23.1% | –
9 | C[C@@H](O)[C@H](NC(=O)C(C)(C)NC(=O)[C@H](CCCCNC(=O)[C@@H](N)CCCCNC(=O)COCC(=O)NCCCOCCOCCOCCCNC(=O)CC[C@H](NC(=O)[C@H]1CC[C@H](CNC(=O)CCCCCCCCCCCCCCCCCCC(=O)O)CC1)C(=O)O)NC(=O)[C@H](CC(N)=O)NC(=O)C(C)(C)NC(=O)[C@H](CC1CCCCC1)NC(=O)[C@H](Cc1ccncc1)NC(=O)[C@H](CCCNC(=N)N)NC(=O)[C@H]1C[C@H](O)CN1C(=O)[C@H](CO)NC(=O)c1c[nH]cn1)C(=O)N[C@@H](CCCNC(=N)N)C(=O)N[C@@H](CCC(N)=O)C(=O)N[C@@H](CCCNC(=N)N)C(=O)N[C@@H](CC1CCCCC1)C(N)=O | 61% | 8.10 | Soluble | -16.5% | -20.7% | Activity (Canis familiaris [13]): Non-Toxic; Activity (Mus musculus [4]): -8%; Activity (Canis familiaris [14]): Toxic; AUC(0-t) at 48 h [6]: 0.373 µM·h; Tmax [7]: 24 h; MRT [8]: 9.3 h; Cmax [9]: 32 nM; Tmax [10]: 4 h; Cmax [11]: 10.8 nM
10 | C[C@@H](O)[C@H](NC(=O)C(C)(C)NC(=O)[C@H](CCCCNC(=O)C1CCNCC1)NC(=O)[C@H](CC(N)=O)NC(=O)C(C)(C)NC(=O)[C@H](CC1CCCCC1)NC(=O)[C@H](Cc1ccncc1)NC(=O)[C@H](CCCNC(=N)N)NC(=O)[C@H]1C[C@H](O)CN1C(=O)[C@H](CO)NC(=O)COCC(=O)NCCCOCCOCCOCCCNC(=O)CC[C@H](NC(=O)[C@H]1CC[C@H](CNC(=O)CCCCCCCCCCCCCCCCCCC(=O)O)CC1)C(=O)O)C(=O)N[C@@H](CCCNC(=N)N)C(=O)N[C@@H](CCC(N)=O)C(=O)N[C@@H](CCCNC(=N)N)C(=O)N[C@@H](CC1CCCCC1)C(N)=O | 67.3% | 8.35 | – | -11.6% | -17.2% | –
